Where a SMILES comes first, the peptide text is derived from it. [ ]: non-standard residue; d: D form.
What was measured:
[1] = system: experimental model of RPGN; experiment: anti-GBM RPGN model, continuous infusion of selective ETA or ETB antagonist by subcutaneous osmotic minipumps; type: in vivo, C57B1/6J mice; conditions: 100 nmol·kg−1·day−1 by minipump; for plasma urea concentration (index of renal failure): vehicle 34.3±6.1 mmol/L
[2] = system: accelerated anti-GBM RPGN model; experiment: accelerated anti-GBM RPGN model, bosentan mixed with food; type: in vivo, C57B1/6J mice; conditions: bosentan 50 mg/kg/d oral in food
Protocol: Male and female C57B1/6 mice weighing 20-25 g, 10 weeks old, purchased from Charles River France, were housed in a room with a 12 h light-dark cycle with water and food ad libido. […] The animals were sacrificed by injection of pentobarbital (100 mg/kg i.p.)
The accelerated anti-GBM RPGN model was used, as previously described in Topham P S et al, 1999 and Lloyd C M et al, 1997. Briefly, C57B1/6J male mice were given subcutaneous injections of 200 μg normal sheep IgG (100 μl into each flank of normal sheep IgG (Sigma) diluted to 1 mg/ml in a solution of 50% Freund's complete adjuvent and 50% saline). Six days later (day 1), GN was induced by intravenous injection of 50 μL sheep anti-glomerular basement membrane (GBM) serum diluted to 70 mg/ml in saline. Serum injections were repeated twice (on days 2 and 3), with the serum volume increased to 250 μL. From days 0 to 14, mice were given bosentan, an orally active endothelin antagonist (designated chemically as 4-tert-butyl-N-[6-(2-hydroxy-ethoxy)-5-(2-methoxy-phenoxy)-[2,2′]-bipyrimidin-4-yl]-benzenesulfonamide monohydrate). We manually grinded 62.5 mg film-coated tablets of […] ® (bosentan) for oral administration and mixed them with powdered food supplied to the animals at an active dose of 50 mg/kg/d for 14 days as previously described^3. […] The treated group (n=7) was compared to vehicle-treated animals (n=6). […]
Normalized albumin urinary excretion was evaluated from urine samples collected for 18 h in metabolic cages (Techniplast). Urinary creatinine and albumin were quantified spectrophotometrically using colorimetric methods (Olympus).
For light microscopy, half mouse kidneys were fixed and embedded in paraffin, and 3 μm-thick sections were cut. Histopathological changes were evaluated using Masson's trichrome coloration by an examiner who was blind to the experimental conditions. The proportion of crescentic glomeruli was determined by examination of at least 50 glomeruli per section.

[3] = system: murine podocyte cell line; experiment: migration assay in cultured podocytes (Ibidi Culture-Insert, gap coverage); type: cell-based, mouse; conditions: coverage of 500 μm gap after 20 hours of culture; vs vehicle (RPMI with DMSO)
Protocol: Selected experiments (migration studies) were performed in a murine podocyte cell line (Schiwek D et al, 2004) derived from isolated from kidneys of Immorto-Mouse® mice (Charles River, St. Louis, Mo., USA), carrying a temperature-sensitive mutant of the immortalizing SV40 large T antigen under control of the interferon-gamma (INF-γ)-inducible H-2 Kb promoter. Migration assays were performed in μ-Dish 35 mm high with Culture-Insert (Ibidi). Ibidi's wounding inserts were used for cell migration or cell invasion studies. […] The inserts can be inserted into any bio-compatible surface and used to culture one or multiple cell lines. These inserts have two wells that create 2 distinct cell patches with a defined gap of 500 μm. The coverage of this gap after 20 hours of culture was assessed in the presence of the selective ETA antagonist BQ123 or the ETB antagonist BQ 788 (Calbiochem) or vehicle (RPMI with DMSO).

CC(C)C[C@@H]1NC(=O)[C@@H](C(C)C)NC(=O)[C@@H]2CCCN2C(=O)[C@@H](CC(=O)O)NC(=O)[C@@H](Cc2c[nH]c3ccccc23)NC1=O [BQ123] (cyclo(L[dW][dD]P[dV]))
plasma urea concentration (index of renal failure) [1]: 17.5 ± 2.5 mmol/L

COc1ccccc1Oc1c(NS(=O)(=O)c2ccc(C(C)(C)C)cc2)nc(-c2ncccn2)nc1OCCO [bosentan, 4-tert-butyl-N-[6-(2-hydroxy-ethoxy)-5-(2-methoxy-phenoxy)-[2,2′]-bipyrimidin-4-yl]-benzenesulfonamide monohydrate]
Albuminuria normalized to creatininuria, fold lower than in vehicle-treated counterparts ([2]; day 5 after infusion of the anti-GBM serum, p=0.0053): 5.8 fold | crescentic glomeruli, fold less than in vehicle-treated counterparts ([2]; day 14 after infusion of the anti-GBM serum, p=0.0057): 14 fold | fibrinogen deposition in glomeruli with disappearance of podocin positive podocytes ([2]; mice with anti-GBM serum-induced RPGN): blunted

CCCC[C@@H](NC(=O)[C@@H](Cc1cn(C(=O)OC)c2ccccc12)NC(=O)[C@H](CC(C)(C)C)NC(=O)N1[C@H](C)CCC[C@@H]1C)C(=O)O [BQ788]
migration of cultured podocytes [3]: prominent action | Albuminuria normalized to creatininuria ([1]; day 7 after infusion of the anti-GBM serum, versus PBS-treated animals): prominent action | plasma urea concentration (index of renal failure) [1]: 12.3 ± 2.1 mmol/L

Reference: patent publication US20120283190A1, “ENDOTHELIN INHIBITORS FOR THE TREATMENT OF RAPIDLY PROGRESSIVE GLOMERULONEPHRITIS” (Institut National De La Santé Et De La Recherche Medicale …, priority 2009, published 2012)
